This is an account of results in patent US6300501A, “Histidine-(N-benzyl glycinamide) inhibitors of protein farnesyl transferase” (Warner-Lambert Company, priority 1998, dated 2001).

A word on the IC50: it is the concentration needed to halve the response being measured.

Each structure is given as a SMILES string. Read-outs that look alike come from different tables or passages of the source.

In test [1] the target is T1, SF9 affinity purified rat farnesyl protein transferase (Rattus norvegicus, UniProt Q02293+Q04631).
T1 construct: made in house; host or cells: Sf9 insect cells (baculovirus system inferred from b7)
T1 sequence (Q02293 whole entry, one chain of several): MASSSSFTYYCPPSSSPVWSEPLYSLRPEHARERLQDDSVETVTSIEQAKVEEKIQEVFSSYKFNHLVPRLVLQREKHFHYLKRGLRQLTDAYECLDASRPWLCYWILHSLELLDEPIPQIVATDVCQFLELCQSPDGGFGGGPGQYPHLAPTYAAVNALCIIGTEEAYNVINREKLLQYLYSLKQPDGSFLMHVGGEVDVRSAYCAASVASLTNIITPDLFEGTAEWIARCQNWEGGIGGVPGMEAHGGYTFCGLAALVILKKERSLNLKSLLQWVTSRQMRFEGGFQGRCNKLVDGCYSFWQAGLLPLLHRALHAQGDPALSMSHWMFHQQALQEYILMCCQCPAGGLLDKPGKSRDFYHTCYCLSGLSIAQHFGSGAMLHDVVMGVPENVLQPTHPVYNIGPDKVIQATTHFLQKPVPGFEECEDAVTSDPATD
In words: PFT inhibitory activity (radiolabeled farnesyl pyrophosphate, streptavidin bead assay). In kind it is biochemical. The essentials:
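HEPES pH 7.4 with 5 mM potassium phosphate (also run without), 20 μM ZnCl2, 5 mM DTT, 5 mM MgCl2, 0.1% PEG 8000; [3H]farnesyl pyrophosphate 134 nM and biotinyl-Ahe-TKCVIM peptide 0.2 μM final. Incubated 30 min at 30° C, stopped with acidic magnesium acetate/streptavidin bead buffer; bead-bound radioactivity counted.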

Test [2] has as its system ras farnesylation in ras-transformed cells. Nature of the test: Gel shift assay. In kind it is cell-based. Particulars: ras-transformed cells, 18-hour incubation; for minimal effective concentration: read-out: Gel Shift (μM) MED (minimal effective dose to observe inhibition of ras farnesylation). A digest of the protocol:
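Ras-transformed cells (2×10^6 per condition) treated with farnesylation inhibitor at varying concentrations for 18 h. Ras immunoprecipitated from lysates with Y13-259, resolved on 14% SDS gels and detected by pan-ras Western blot with ECL, farnesylated and unfarnesylated ras separating by mobility shift.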

The test system of test [3] is H61 cells: NIH transformed 3T3 H-ras cells. In words: Clonogenic assay (6 well plates, soft agar). It is filed as cell-based. To be noted: colonies counted after Day 13, read-out: Clonogenic Assay IC50. The essentials: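 Soft-agar colony formation: cells seeded in 0.3% agar top layer with 20% calf serum over a 0.6% agar base, drug or DMSO added at 4 µL per mL agar/medium. Incubated at 37 °C, 5% CO2; INT (1 mg/mL) added on day 13 to stain colonies.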

[4] abbreviates: HEPES buffer pH 7.4, without 5 mM potassium phosphate, read-out: IC50 (μM) Hepes.
[5] abbreviates: HEPES buffer pH 7.4 containing 5 mM potassium phosphate, read-out: IC50 (μM) 5 mM K3 PO4 -2.

With `CC(CNC(=O)CN(Cc1ccccc1Cl)C(=O)[C@H](Cc1c[nH]cn1)NC(=O)OCc1ccccc1)c1ccccc1` (stereo partly drawn) [Example 28, (S)-[1-{(2-Chloro-benzyl)-[(2-phenyl-propylcarbamoyl)-methyl]-carbamoyl}-2-(1H-imidazole-4-yl)-ethyl]-carbamic Acid Benzyl Ester], the IC50 was found to be 2.6 µM in test [1] (setting [4]), 0.043 µM in test [1] (setting [5]) and 600 nM in test [3] (312 h). For the same compound, the minimal effective concentration in test [2] stood at 0.2 µM.

Take `CCC(CC)(CNC(=O)CN(Cc1ccc(OCc2ccccc2)cc1)C(=O)[C@H](Cc1cnc[nH]1)NC(=O)OCc1ccccc1)c1ccccc1` [Example 25, (S)-[1-{(4-Benzyloxy-benzyl)-[(2-ethyl-2-phenyl-butylcarbamoyl)-methyl]-carbamoyl}-2-(3H-imidazole-4-yl)-ethyl]-carbamic Acid Benzyl Ester]: the IC50 in test [1] (setting [4]) was 0.93 µM; in test [1] (setting [5]), 0.032 µM; in test [3] (312 h), 890 nM. The minimal effective concentration in test [2] was 0.2 µM.

On to `CC(CNC(=O)CN(Cc1ccc(C(F)(F)F)cc1)C(=O)[C@H](Cc1c[nH]cn1)NC(=O)OCc1ccccc1)c1ccccc1` (stereo partly drawn) [Example 38, (S)-{2-(1H-Imidazole-4-yl)-1-[[(2-phenyl-propylcarbamoyl)-methyl]-(4-trifluoromethyl-benzyl)-carbamoyl]-ethyl}-carbamic Acid Benzyl Ester], for which the IC50 stood at 1.6 µM in test [1] (setting [4]), 0.013 µM in test [1] (setting [5]) and 220 nM in test [3] (312 h). In addition, the minimal effective concentration in test [2] turned out to be 0.2 µM.

On to `CC(C)(CNC(=O)CN(Cc1ccc(-c2ccccc2)cc1)C(=O)[C@H](Cc1c[nH]cn1)NC(=O)OCc1ccccc1)c1ccccc1` [Example 52, (S)-[1-{Biphenyl-4-ylmethyl-[(2-methyl-2-phenyl-propylcarbamoyl)-methyl]-carbamoyl}-2-(1H-imidazole-4-yl)-ethyl]-carbamic Acid Benzyl Ester], for which the IC50 in test [1] (setting [4]) turned out to be 0.48 µM; in test [1] (setting [5]) it was 0.004 µM; in test [3] (312 h) it was 520 nM. Further, the minimal effective concentration in test [2] came to 0.05 µM.

On to `O=C(CN(Cc1ccc(OCc2ccccc2)cc1)C(=O)[C@H](Cc1c[nH]cn1)NC(=O)OCc1ccccc1)NCCc1ccccc1Cl` [Example 53], for which the IC50 was 10.6 µM in test [1] (setting [4]), 0.12 µM in test [1] (setting [5]) and 12400 nM in test [3]. The minimal effective concentration in test [2] amounted to 0.2 µM.

Regarding `CC(CNC(=O)CN(Cc1ccc(F)cc1)C(=O)[C@H](Cc1c[nH]cn1)NC(=O)OCc1ccccc1)c1ccccc1` (stereo partly drawn) [Example 18, (S)-[1-{(4-Fluoro-benzyl)-[(2-phenyl-propylcarbamoyl)-methyl]-carbamoyl}-2-(1H-imidazole-4-yl)-ethyl]-carbamic Acid Benzyl Ester], the values for the IC50 in test [1] (setting [4]), in test [1] (setting [5]) and in test [3] (312 h) were 2.8 µM, 0.061 µM and greater than 1000 nM, respectively. In addition, in test [2], the minimal effective concentration was determined as 0.2 µM.

Regarding `CC(C)(CNC(=O)CN(Cc1ccccc1)C(=O)[C@H](Cc1c[nH]cn1)NC(=O)OCc1ccccc1)c1ccccc1` [Example 42, (S)-[1-{Benzyl-[(2-methyl-2-phenyl-propylcarbamoyl)-methyl]-carbamoyl}-2-(1H-imidazole-4-yl)-ethyl]-carbamic Acid Benzyl Ester], the IC50 in test [1] (setting [4]) turned out to be 0.6 µM; in test [1] (setting [5]), 0.005 µM; in test [3] (312 h) it was 510 nM. Also, the minimal effective concentration in test [2] is 0.05 µM.

Regarding `COc1ccccc1CN(CC(=O)NCC(C)c1ccccc1)C(=O)[C@H](Cc1c[nH]cn1)NC(=O)OCc1ccccc1` (stereo partly drawn) [Example 33, (S)-(2-(1H-Imidazole-4-yl)-1-{(2-methoxy-benzyl)-[(2-phenyl-propylcarbamoyl)-methyl]-carbamoyl}-ethyl)-carbamic Acid Benzyl Ester], the IC50 in test [1] (setting [4]) is 0.5 µM; in test [1] (setting [5]), 0.009 µM; in test [3] (312 h) it was 360 nM. In test [2], the minimal effective concentration turned out to be 0.05 µM.

Consider `CC(CNC(=O)CN(Cc1ccc(Cl)cc1)C(=O)[C@H](Cc1c[nH]cn1)NC(=O)OCc1ccccc1)c1ccccc1` (stereo partly drawn) [Example 13, (S)-[1-{(4-Chloro-benzyl)-[(2-phenyl-propylcarbamoyl)-methyl]-carbamoyl}-2-(1H-imidazole-4-yl)-ethyl]-carbamic Acid Benzyl Ester], for which the IC50 in test [1] (setting [4]) was 1.4 µM; in test [1] (setting [5]), 0.022 µM; in test [3] (312 h), greater than 1000 nM. Further, the minimal effective concentration in test [2] was determined as 0.2 µM.

As for `COc1ccc(CN(CC(=O)NCC(C)(C)c2ccccc2)C(=O)[C@H](Cc2c[nH]cn2)NC(=O)OCc2ccccc2)cc1` [Example 44, (S)-(2-(1H-Imidazole-4-yl)-1-{(4-methoxy-benzyl)-[(2-methyl-2-phenyl-propylcarbamoyl)-methyl]-carbamoyl}-ethyl)-carbamic Acid Benzyl Ester], the IC50 turned out to be 0.3 µM in test [1] (setting [4]), 0.002 µM in test [1] (setting [5]) and 360 nM in test [3] (312 h). In addition, the minimal effective concentration in test [2] worked out at 0.02 µM.

As to `O=C(CN(Cc1ccc(OCc2ccccc2)cc1)C(=O)[C@H](Cc1c[nH]cn1)NC(=O)OCc1ccccc1)NCCc1ccccn1` [Example 8, (S)-[1-{(4-Benzyloxy-benzyl)-[(2-pyridin-2-yl-ethylcarbamoyl)-methyl]-carbamoyl]-2-(1H-imidazole-4-yl)-ethyl]-carbamic Acid Benzyl Ester], the IC50 in test [1] (setting [4]) was 7.8 µM; in test [1] (setting [5]), 0.3 µM; in test [3] (312 h), greater than 1000 nM. Further, the minimal effective concentration in test [2] turned out to be 0.2 µM.

Take `C[C@H](Cc1ccccc1)NC(=O)CN(Cc1ccc(OCc2ccccc2)cc1)C(=O)[C@H](Cc1c[nH]cn1)NC(=O)OCc1ccccc1` [Example 10]: the IC50 in test [1] (setting [4]) was determined as 0.58 µM; in test [1] (setting [5]), 0.018 µM; in test [3], 710 nM. The “Gel Shift (μM) MED (minimal effective dose to observe inhibition of ras farnesylation)” value in test [2] was 0.01 to 0.05 µM.

On to `CC(CNC(=O)CN(Cc1ccc(OCc2ccccc2)cc1)C(=O)[C@H](Cc1c[nH]cn1)NC(=O)NCc1ccccc1)c1ccccc1` (stereo partly drawn) [Example 6, (S)-N-(4-Benzyloxy-benzyl)-2-(3-benzyl-ureido)-3-(1H-imidazole-4-yl)-N-[(2-phenyl-propylcarbamoyl)-methyl]-propionamide], for which the IC50 in test [1] (setting [4]) is 0.2 µM; in test [1] (setting [5]) it was 0.0022 µM; in test [1] (with 5 mM potassium phosphate, average obtained by additional tests, read-out: IC50 (μM) 5 mM K3 PO4 -2, number in parentheses), 0.017 µM; in test [1] (without 5 mM potassium phosphate, average obtained by additional tests, read-out: IC50 (μM) Hepes, number in parentheses), 0.5 µM; in test [3] (312 h) it was greater than 1000 nM. The minimal effective concentration in test [2] was found to be 0.2 µM.

As to `CC(CNC(=O)CN(Cc1ccccc1)C(=O)[C@H](Cc1c[nH]cn1)NC(=O)OCc1ccccc1)c1ccccc1` (stereo partly drawn) [Example 23, (S)-[1-{Benzyl-[(2-phenyl-propylcarbamoyl)-methyl]-carbamoyl}-2-(1H-imidazole-4-yl)-ethyl]-carbamic Acid Benzyl Ester], the results for the IC50 in test [1] (setting [4]), in test [1] (setting [5]) and in test [3] (312 h) were 1.6 µM, 0.022 µM and greater than 1000 nM, respectively. Moreover, the minimal effective concentration in test [2] came to 0.2 µM.

For the compound `O=C(CN(Cc1ccc(OCc2ccccc2)cc1)C(=O)[C@H](Cc1cnc[nH]1)NC(=O)OCc1ccccc1)NCC(O)c1ccccc1` (stereo partly drawn) [Example 14, (S)-[1-{(4-Benzyloxy-benzyl)-[(2-hydroxy-2-phenyl-ethylcarbamoyl)-methyl]-carbamoyl}-2-(3H-imidazole-4-yl)-ethyl]-carbamic Acid Benzyl Ester], the IC50 in test [1] (setting [4]) is 1.6 µM; in test [1] (setting [5]), 0.066 µM; in test [3] (312 h), greater than 1000 nM. For the same compound, the minimal effective concentration in test [2] turned out to be 0.05 µM.

Turning to `CC(CNC(=O)CN(Cc1cccc(Cl)c1)C(=O)[C@H](Cc1c[nH]cn1)NC(=O)OCc1ccccc1)c1ccccc1` (stereo partly drawn) [Example 30, (S)-[1-{(3-Chloro-benzyl)-[(2-phenyl-propylcarbamoyl)-methyl]-carbamoyl}-2-(1H-imidazole-4-yl)-ethyl]-carbamic Acid Benzyl Ester], the IC50 is 0.78 µM in test [1] (setting [4]), 0.016 µM in test [1] (setting [5]) and greater than 1000 nM in test [3] (312 h). The minimal effective concentration in test [2] was found to be 0.1 µM.

Turning to `CC(CNC(=O)CN(Cc1ccc(-c2ccccc2)cc1)C(=O)[C@H](Cc1c[nH]cn1)NC(=O)OCc1ccccc1)c1ccccc1` (stereo partly drawn) [Example 51, (S)-[1-{Biphenyl-4-ylmethyl-[(2-phenyl-propylcarbamoyl)-methyl]-carbamoyl}-2-(1H-imidazole-4-yl)-ethyl]-carbamic Acid Benzyl Ester], the IC50 in test [1] (setting [4]) worked out at 0.88 µM; in test [1] (setting [5]), 0.004 µM; in test [3] (312 h), 250 nM. Besides, the minimal effective concentration in test [2] is no less than 0.05 µM.

Regarding `CN(Cc1ccccc1)C(=O)N[C@@H](Cc1c[nH]cn1)C(=O)N(CC(=O)NCC(C)(C)c1ccccc1)Cc1ccc(OCc2ccccc2)cc1` [Example 41, (S)-2-(3-Benzyl-3-methyl-ureido)-N-(4-benzyloxy-benzyl)-3-(1H-imidazole-4-yl)-N-[(2-methyl-2-phenyl-propylcarbamoyl)-methyl]-propionamide], the figures for the IC50 in test [1] (setting [4]), in test [1] (setting [5]) and in test [3] (312 h) were 0.009 µM, 0.004 µM and 40 nM, respectively. Moreover, the minimal effective concentration in test [2] came to 0.05 µM.
